Reference: US9029553B2, “2-anilino nicotinyl linked 2-amino benzothiazole conjugates and process for the preparation thereof” (Council of Scientific & Industrial Research, priority 2011, dated 2015)

Tests used:
[1] = system: KM12; experiment: NCI SRB GI50 screen; format: cell-based; conditions: Homo sapiens, Colon, 48 hrs exposure, read-out: Growth Inhibition GI50 KM12
Method: (§1) 2-Anilino nicotinyl linked 2-amino benzothiazole conjugates of formula 9-12 were tested against fifty nine human cancer cell lines derived from nine cancer types (leukemia, non-small cell lung cancer, colon cancer, CNS cancer, melanoma, ovarian cancer, renal cancer, prostate cancer and breast cancer) as per NCI protocol. For each compound, dose response curves for individual cell lines were measured at a minimum of five concentrations at 10 fold dilutions. A protocol of 48 hrs continuous drug exposure was used, and a sulforhodamine B (SRB) protein assay was used to estimate cell viability or growth.

[2] = system: SNB-19; experiment: NCI SRB GI50 screen; format: cell-based; conditions: Homo sapiens, CNS, 48 hrs exposure, read-out: Growth Inhibition GI50 SNB-19
Method: as §1

[3] = system: PC-3; experiment: NCI SRB GI50 screen; format: cell-based; conditions: Homo sapiens, Prostate, 48 hrs exposure, read-out: Growth Inhibition GI50 PC-3
Method: as §1

[4] = system: T-47D; experiment: NCI SRB GI50 screen; format: cell-based; conditions: Homo sapiens, T47D; Breast, 48 hrs exposure; read-out: Growth Inhibition GI50 T-47D
Method: as §1

[5] = system: NCI-H460; experiment: NCI SRB GI50 screen; format: cell-based; conditions: Homo sapiens, Non-small lung, 48 hrs exposure, read-out: Growth Inhibition GI50 NCI-H460
Method: as §1

[6] = system: BT-549; experiment: NCI SRB GI50 screen; format: cell-based; conditions: Homo sapiens, Breast, 48 hrs exposure, read-out: Growth Inhibition GI50 BT-549
Method: as §1

[7] = system: EKVX; experiment: NCI SRB GI50 screen; format: cell-based; conditions: Homo sapiens, Non-small lung, 48 hrs exposure, read-out: Growth Inhibition GI50 EKVX
Method: as §1

[8] = system: SF-539; experiment: NCI SRB GI50 screen; format: cell-based; conditions: Homo sapiens, CNS, 48 hrs exposure, read-out: Growth Inhibition GI50 SF-539
Method: as §1

[9] = system: HT29; experiment: NCI SRB GI50 screen; format: cell-based; conditions: Homo sapiens, HT-29; Colon, 48 hrs exposure; read-out: Growth Inhibition GI50 HT29
Method: as §1

[10] = system: M14; experiment: NCI SRB GI50 screen; format: cell-based; conditions: Homo sapiens, Melanoma, 48 hrs exposure, read-out: Growth Inhibition GI50 M14
Method: as §1

[11] = system: DU-145; experiment: NCI SRB GI50 screen; format: cell-based; conditions: Homo sapiens, Prostate, 48 hrs exposure, read-out: Growth Inhibition GI50 DU-145
Method: as §1

[12] = system: OVCAR-5; experiment: NCI SRB GI50 screen; format: cell-based; conditions: Homo sapiens, Ovarian, 48 hrs exposure, read-out: Growth Inhibition GI50 OVCAR-5
Method: as §1

[13] = system: IGROV1; experiment: NCI SRB GI50 screen; format: cell-based; conditions: Homo sapiens, IGROV-1; Ovarian, 48 hrs exposure; read-out: Growth Inhibition GI50 IGROV1
Method: as §1

[14] = system: SN12C; experiment: NCI SRB GI50 screen; format: cell-based; conditions: Homo sapiens, Renal, 48 hrs exposure, read-out: Growth Inhibition GI50 SN12C
Method: as §1

[15] = system: OVCAR-8; experiment: NCI SRB GI50 screen; format: cell-based; conditions: Homo sapiens, Ovarian, 48 hrs exposure, read-out: Growth Inhibition GI50 OVCAR-8
Method: as §1

[16] = system: MDA-MB-231/ATCC; experiment: NCI SRB GI50 screen; format: cell-based; conditions: Homo sapiens, Breast, 48 hrs exposure, read-out: Growth Inhibition GI50 MDA-MB-231/ATCC
Method: as §1

[17] = system: HS 578T; experiment: NCI SRB GI50 screen; format: cell-based; conditions: Homo sapiens, Breast, 48 hrs exposure, read-out: Growth Inhibition GI50 HS 578T
Method: as §1

[18] = system: HCT-116; experiment: NCI SRB GI50 screen; format: cell-based; conditions: Homo sapiens, Colon, 48 hrs exposure, read-out: Growth Inhibition GI50 HCT-116
Method: as §1

[19] = system: OVCAR-3; experiment: NCI SRB GI50 screen; format: cell-based; conditions: Homo sapiens, Ovarian, 48 hrs exposure, read-out: Growth Inhibition GI50 OVCAR-3
Method: as §1

[20] = system: NCI-H322M; experiment: NCI SRB GI50 screen; format: cell-based; conditions: Homo sapiens, Non-small lung, 48 hrs exposure, read-out: Growth Inhibition GI50 NCI-H322M
Method: as §1

[21] = system: SF-268; experiment: NCI SRB GI50 screen; format: cell-based; conditions: Homo sapiens, CNS, 48 hrs exposure, read-out: Growth Inhibition GI50 SF-268
Method: as §1

[22] = system: U251; experiment: NCI SRB GI50 screen; format: cell-based; conditions: Homo sapiens, U-251; CNS, 48 hrs exposure; read-out: Growth Inhibition GI50 U251
Method: as §1

[23] = system: MALME-3M; experiment: NCI SRB GI50 screen; format: cell-based; conditions: Homo sapiens, read-out: Growth Inhibition GI50 MALME-3M, Melanoma, 48 hrs exposure
Method: as §1

[24] = system: NCI/ADR-RES; experiment: NCI SRB GI50 screen; format: cell-based; conditions: Homo sapiens, Ovarian, 48 hrs exposure, read-out: Growth Inhibition GI50 NCI/ADR-RES
Method: as §1

[25] = system: MDA-MB-435; experiment: NCI SRB GI50 screen; format: cell-based; conditions: Homo sapiens, Melanoma, 48 hrs exposure, read-out: Growth Inhibition GI50 MDA-MB-435
Method: as §1

[26] = system: COLO 205; experiment: NCI SRB GI50 screen; format: cell-based; conditions: Homo sapiens, Colon, 48 hrs exposure, read-out: Growth Inhibition GI50 COLO 205
Method: as §1

[27] = system: UACC-257; experiment: NCI SRB GI50 screen; format: cell-based; conditions: Homo sapiens, Melanoma, 48 hrs exposure, read-out: Growth Inhibition GI50 UACC-257
Method: as §1

[28] = system: HL-60 cells; experiment: Annexin V-FITC flow cytometric analysis of apoptosis and necrosis; format: cell-based, human; conditions: 1 μM, 24 h
Method: During apoptosis an important biochemical change that take place in cells undergoing is flipping of phosphatidyl serine lipid from the inner leaflet of the cellular membrane to the outer one.
Annexin V a calcium dependent phospholipids binding protein has a high affinity for PS. […] Compounds 4-8 at 1 μM were treated with HL-60 cells were incubated for 24 h and the extent of apoptosis vs. necrosis was analyzed from the quadrant analysis of cell population with Annexin V-FITC. Both the apoptotic and post apoptotic cell populations increased in HL-60 cells.

Compound | GI50 [1] | GI50 [2] | GI50 [3] | GI50 [4] | GI50 [5] | GI50 [6] | GI50 [7] | GI50 [8] | GI50 [9] | GI50 [10] | GI50 [11] | GI50 [12] | GI50 [13] | GI50 [14] | GI50 [15] | GI50 [16] | GI50 [17] | GI50 [18] | GI50 [19] | GI50 [20] | also measured
COc1cc(Nc2ncccc2C(=O)Nc2nc3ccc(F)cc3s2)cc(OC)c1OC [Compound 11, N3-(6-fluoro-1,3-benzothiazol-2-yl)-2-(3,4,5-trimethoxyanilino)nicotinamide] | 3.79 µM | 3.49 µM | 2.73 µM | 2.3 µM | 3.3 µM | 2.63 µM | 2.7 µM | 3.84 µM | 5.15 µM | 3.08 µM | 5.5 µM | 25.6 µM | 1.77 µM | 4.73 µM | 3.62 µM | 4.61 µM | 2.57 µM | 3.49 µM | 2.77 µM | 3.71 µM | GI50 [21]: 6.56 µM; GI50 [22]: 3.01 µM; GI50 [23]: 3.27 µM; GI50 [24]: 2.92 µM; GI50 [25]: 2.87 µM; GI50 [26]: 3.04 µM
COc1ccc2nc(NC(=O)c3cccnc3Nc3cc(OC)c(OC)c(OC)c3)sc2c1 [Compound 12, N-3-(6-methoxy-1,3-benzothiazol-2-yl)-2-(3,4,5-trimethoxyanilino) nicotinamide] | 4.51 µM | 15 µM | 6.67 µM | 5.06 µM | 7.42 µM | 11.6 µM | 11.5 µM | 2.81 µM | 17.7 µM | 10.5 µM | 14.6 µM | 14.5 µM | 13.2 µM | 11.7 µM | 6.52 µM | 5.62 µM | 5.77 µM | 4.5 µM | 8.92 µM | 17.3 µM | GI50 [27]: 8.45 µM; GI50 [21]: 4.43 µM; GI50 [22]: 7.1 µM; GI50 [23]: 10.1 µM; GI50 [24]: 8.97 µM; GI50 [25]: 1.85 µM; GI50 [26]: 17.4 µM
O=C(Nc1nc2ccc([N+](=O)[O-])cc2s1)c1cccnc1Nc1cc(F)c(F)c(F)c1 [Compound 8, N3-(6-nitro-1,3-benzothiazol-2-yl)-2-[(3,4,5-trifluorophenyl)amino]-3-pyridine carboxamide] | – | – | – | – | – | – | – | – | – | – | – | – | – | – | – | – | – | – | – | – | apoptotic cells (Annexin V-FITC) [28]: around 70%
O=C(Nc1nc2ccc(F)cc2s1)c1cccnc1Nc1ccc(Cl)cc1 [Compound 9, N3-(6-fluoro-1,3-benzothiazol-2-yl)-2-(4-chloroanilino)nicotinamide] | 2.61 µM | 3.65 µM | 2.13 µM | 0.73 µM | 1.97 µM | 2.05 µM | 1.94 µM | 2.7 µM | 2.86 µM | 2.64 µM | 3.67 µM | 2.63 µM | 2 µM | 2.3 µM | 2.24 µM | 1.85 µM | 1.99 µM | 1.67 µM | 2.17 µM | 3.25 µM | GI50 [27]: 0.164 µM; GI50 [21]: 3.93 µM; GI50 [22]: 3.03 µM; GI50 [23]: 1.94 µM; GI50 [24]: 2.09 µM; GI50 [25]: 2.99 µM; GI50 [26]: 1.68 µM
O=C(Nc1nc2ccc(F)cc2s1)c1cccnc1Nc1ccc(Cl)cc1Cl [Compound 10, N3-(6-fluoro-1,3-benzothiazol-2-yl)-2-(2,4-dichloroanilino)nicotinamide] | 2.9 µM | 3.66 µM | 2.11 µM | 1.93 µM | 2.56 µM | 3.01 µM | 2.07 µM | 4.02 µM | 2.98 µM | 3.37 µM | 3.53 µM | 4.46 µM | 1.82 µM | 2.32 µM | 2.78 µM | 3.41 µM | 3.25 µM | 2.19 µM | 2.44 µM | 3.24 µM | GI50 [27]: 0.17 µM; GI50 [21]: 3.88 µM; GI50 [22]: 2.9 µM; GI50 [23]: 2.38 µM; GI50 [24]: 2.51 µM; GI50 [25]: 3.03 µM; GI50 [26]: 1.9 µM
